Reference: ChEMBL document CHEMBL4699483, “Synthesis of functionalized derivatives of the gamma-secretase modulator BMS-932481 and identification of its major metabolite” (Bioorg Med Chem Lett, 2020)
Blank lines part the entries; values can stand above or below the compound they belong to.

What was measured:
Gamma-secretase = experiment: Modulation of gamma secretase (unknown origin) assessed as inhibition of amyloid beta (1 to 42 residues) production; format: protein-complex assay, Homo sapiens
[1] = Metabolic stability in human liver microsomes assessed as parent compound remaining incubated for 30 mins; format: ADME, Microsome; details: read-out: Stabilty
[2] = Metabolic stability in rat liver microsomes assessed as parent compound remaining incubated for 30 mins; format: ADME, Microsome; details: read-out: Stabilty
[3] = Drug metabolism assessed as (5R,7S)-7-(4-fluorophenyl)-2-(3-methoxy-4-(3-methyl-1H-1,2,4-triazol-1-yl)phenylamino)-4-(methylamino)-6,7-dihydro-5H-cyclopenta[d]pyrimidin-5-ol metabolite formation by LC/MS analysis
[4] = Drug metabolism assessed as (S)-7-(4-fluorophenyl)-2-(3-methoxy-4-(3-methyl-1H-1,2,4-triazol-1-yl)phenylamino)-4-(methylamino)-6,7-dihydro-5H-cyclopenta[d]pyrimidin-5-one metabolite formation by LC/MS analysis
[5] = Glutathione reactivity in liver microsomes assessed as GSH-adduct formation; format: ADME
[6] = Drug metabolism assessed as nitrile adduct formation in presence of KCN
[7] = Drug metabolism assessed as iminoquinone A formation
Cytochrome P450 3A4 = Cytochrome P450 3A4 (Homo sapiens, UniProt P08684); experiment: Time-dependent inhibition of CYP3A4 in human liver microsomes assessed as inhibition constant by Kitz-Wilson plot analysis; format: ADME
Sequence of Cytochrome P450 3A4 (P08684 whole entry): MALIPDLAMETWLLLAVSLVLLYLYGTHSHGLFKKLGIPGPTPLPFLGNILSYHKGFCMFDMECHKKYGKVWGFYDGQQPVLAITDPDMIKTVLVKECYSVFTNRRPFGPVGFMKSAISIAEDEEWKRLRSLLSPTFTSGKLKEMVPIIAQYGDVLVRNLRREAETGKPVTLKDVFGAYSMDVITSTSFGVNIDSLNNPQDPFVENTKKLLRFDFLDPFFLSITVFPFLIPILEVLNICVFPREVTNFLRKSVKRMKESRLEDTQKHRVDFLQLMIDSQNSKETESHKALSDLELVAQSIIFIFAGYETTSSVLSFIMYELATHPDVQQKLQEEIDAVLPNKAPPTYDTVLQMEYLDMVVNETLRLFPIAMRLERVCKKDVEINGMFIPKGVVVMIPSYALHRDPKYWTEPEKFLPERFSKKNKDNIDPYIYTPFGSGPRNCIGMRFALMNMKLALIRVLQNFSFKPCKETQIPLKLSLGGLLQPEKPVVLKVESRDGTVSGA

Compound: CNc1nc(Nc2ccc(-n3cnc(C)n3)c(OC)c2)nc2c1/C(=N/O)C[C@H]2c1ccc(F)cc1
IC50 (Gamma-secretase): 5 nM

Compound: CNc1nc(Nc2ccc(-n3cnc(C)n3)c(OC)c2)nc2c1C(=O)C[C@H]2c1ccc(F)cc1
IC50 (Gamma-secretase): 14 nM

Compound: CNc1nc(Nc2ccc(-n3cnc(C)n3)c(OC)c2)nc2c1CC[C@H]2c1ccc(F)cc1
remaining at 0.5 h [1]: 94%
remaining at 0.5 h [2]: 89%
Drug metabolism [3]: Metabolite detected
Drug metabolism [4]: Metabolite detected
Drug metabolism [5]: Not Active
Drug metabolism [6]: Metabolite detected
Drug metabolism [7]: Metabolite detected

Compound: CNc1nc(Nc2ccc(-n3cnc(C)n3)c(OC)c2)nc2c1CC[C@@H]2c1ccc(F)cc1
remaining at 0.5 h [1]: 94%
remaining at 0.5 h [2]: 89%
Drug metabolism [3]: Metabolite detected
Drug metabolism [4]: Metabolite detected
Drug metabolism [5]: Not Active
Drug metabolism [6]: Metabolite detected
Ki (Cytochrome P450 3A4): 82500 nM
Drug metabolism [7]: Metabolite detected

Compound: CNc1nc(Nc2ccc(-n3cnc(C)n3)c(OC)c2)nc2c1CC[C@@]2(O)c1ccc(F)cc1
IC50 (Gamma-secretase): 2300 nM

Compound: CNc1nc(Nc2ccc(-n3cnc(C)n3)c(OC)c2)nc2c1/C(=N/O)CC2c1ccc(F)cc1 (racemic)
IC50 (Gamma-secretase): 10 nM

The remaining compounds from weak to strong by IC50 (Gamma-secretase), led by results:

IC50 (Gamma-secretase): 96 nM
Compound: CNc1nc(Nc2ccc(-n3cnc(C)n3)c(OC)c2)nc2c1CC[C@]2(O)c1ccc(F)cc1

IC50 (Gamma-secretase): 60 nM
Compound: CNc1nc(Nc2ccc(-n3cnc(C)n3)c(OC)c2)nc2c1C(C)(O)CC2c1ccc(F)cc1 (racemic)

IC50 (Gamma-secretase): 17 nM
Compound: CNc1nc(Nc2ccc(-n3cnc(C)n3)c(OC)c2)nc2c1[C@H](O)C[C@H]2c1ccc(F)cc1
